The source of these data is ChEMBL document CHEMBL1201862, “PubChem BioAssay data set” (2004).

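Cultured in 96-well plates, cells were exposed to test compound for 48 hours across five concentrations. The concentration for 50% growth inhibition is given as GI50.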 The source made the active and inactive calls. Rule as the data show it: active = GI50 up to about 1.1 µM and inactive = higher. A value given as a limit tells only on which side of the number the result lay.

Test systems include HOP-62; HOP-92; IGROV-1; LOX IMVI; MOLT-4; NCI-H23; RPMI-8226; SF-268; SF-295; SK-MEL-28; SK-OV-3; SN12C; SR; U-251; RXF 393; TK-10; A498.
Test in all cases: NCI-60 cell line screen, 48 h

Regarding `O=C(NC12CC3CC(CC(C3)C1)C2)C(=O)c1c[nH]c2ccc(Cl)cc12`, the GI50 in the assay on HOP-62 was 7.13 µM (inactive); in the assay with HOP-92 it was 22.9 µM (inactive); in the assay on IGROV-1 it was 54.1 µM (inactive); with LOX IMVI it was 10.1 µM (inactive); in the assay with MOLT-4 it was 7.89 µM (inactive); in the assay on NCI-H23 it was > 100 µM (inactive). Also, the GI50 with RPMI-8226 was 19.9 µM (inactive); in the assay on SF-268 it was 49 µM (inactive); with SF-295 it was 11.1 µM (inactive); with SK-MEL-28, 35.4 µM (inactive); in the assay with SK-OV-3, 32.7 µM (inactive); in the assay with SN12C, 56.1 µM (inactive). The GI50 in the assay with SR was 54.5 µM (inactive); in the assay on U-251 it was 56.5 µM (inactive).
Turning to `FC(F)(F)c1ccc2nc(Nc3ccc(Cl)c(Cl)c3)c(-c3ccccc3)nc2c1`, the GI50 in the assay with HOP-62 was > 100 µM (inactive); with HOP-92 it was 46.7 µM (inactive); with LOX IMVI, 13.8 µM (inactive); in the assay on MOLT-4, 6.81 µM (inactive); in the assay with NCI-H23, > 100 µM (inactive); in the assay with RPMI-8226, > 100 µM (inactive). Moreover, the GI50 was 39.1 µM (inactive) with RXF 393; 14.6 µM (inactive) in the assay with SF-268; 18.7 µM (inactive) in the assay on SF-295; 82.8 µM (inactive) in the assay on SK-MEL-28; 75.2 µM (inactive) in the assay with SN12C; 6.64 µM (inactive) with SR. Also, the GI50 with TK-10 was 73.1 µM (inactive); in the assay on U-251, 7.16 µM (inactive).
For `COC(=O)C1=C(C(=O)OC)N(C(C)C)[C@H]2C(C(=O)OC)=C(C(=O)OC)N(C(C)C)[C@@H]12`, the GI50 in the assay on A498 was > 100 µM (inactive); in the assay on HOP-62, > 100 µM (inactive); in the assay on HOP-92, > 100 µM (inactive); in the assay on IGROV-1, > 100 µM (inactive); with LOX IMVI, > 100 µM (inactive); with MOLT-4, 71 µM (inactive). Further, the GI50 is > 100 µM (inactive) in the assay on NCI-H23; 84.1 µM (inactive) with RPMI-8226; > 100 µM (inactive) with RXF 393; > 100 µM (inactive) in the assay on SF-268; > 100 µM (inactive) with SF-295; > 100 µM (inactive) with SK-MEL-28. The GI50 with SK-OV-3 was > 100 µM (inactive); with SN12C, > 100 µM (inactive); in the assay on SR it was 48 µM (inactive); with TK-10 it was > 100 µM (inactive); in the assay on U-251, > 100 µM (inactive).
With `CN1C(=O)CC(c2cccc(C3CC(=O)N(C)C3=O)n2)C1=O` (centres undefined), the GI50 with A498, in the assay on HOP-62, with HOP-92, in the assay on IGROV-1, in the assay with LOX IMVI and in the assay on MOLT-4 was > 100 µM (inactive) in each case. The GI50 in the assay with NCI-H23, in the assay with RXF 393, in the assay on SF-268, in the assay on SF-295, with SK-MEL-28 and in the assay on SK-OV-3 was > 100 µM (inactive) each time. The GI50 in the assay with SN12C, with SR, with TK-10 and in the assay with U-251 was > 100 µM (inactive) in each case.
With `[O-][Cl+3]([O-])([O-])[O-].c1ccc(-c2csc3c4ccccc4c4ccccc4[n+]23)cc1`, the GI50 in the assay with A498 is 14.8 µM (inactive); with HOP-62, 7.1 µM (inactive); in the assay with HOP-92, 4.41 µM (inactive); with IGROV-1, 3.95 µM (inactive); in the assay on LOX IMVI, 4.58 µM (inactive); in the assay with MOLT-4, 2.18 µM (inactive). Further, the GI50 with NCI-H23 was 0.553 µM (active); in the assay on RPMI-8226, 4.55 µM (inactive); in the assay with RXF 393, 13 µM (inactive); in the assay with SF-268 it was 2.34 µM (inactive); in the assay on SF-295, 1.14 µM (inactive); with SK-MEL-28 it was 2.7 µM (inactive). For the same molecule, the GI50 is 13.9 µM (inactive) with SK-OV-3; 1.65 µM (inactive) in the assay with SN12C; 4.99 µM (inactive) in the assay on SR; 13.6 µM (inactive) with TK-10; 2.45 µM (inactive) in the assay with U-251.
For the molecule `COC(=O)C(Cc1nc2ccc(Cl)cc2nc1O)C(=O)C(=O)Nc1cc(C)ccc1C` (centres undefined), the GI50 with A498, in the assay with HOP-62, with IGROV-1, with LOX IMVI, in the assay with MOLT-4 and with NCI-H23 was > 100 µM (inactive) in each case. The GI50 with RPMI-8226, with RXF 393, in the assay with SF-268, in the assay on SF-295, in the assay on SK-MEL-28 and in the assay with SK-OV-3 was > 100 µM (inactive) each time. The GI50 in the assay with SN12C, in the assay with SR, in the assay on TK-10 and with U-251 was > 100 µM (inactive) in each case.
Take `C=C(C)C1CC=C(C)C(O)([C@@]2(O)C[C@H](C(=C)C)CC=C2C)C1` (some centres undefined): the GI50 in the assay with A498 is 23.8 µM (inactive); with HOP-62, 16.9 µM (inactive); with HOP-92, 12.9 µM (inactive); in the assay on IGROV-1 it was 16.6 µM (inactive); in the assay with LOX IMVI, 13.9 µM (inactive); with MOLT-4 it was 17.8 µM (inactive). The GI50 is 17.3 µM (inactive) in the assay on NCI-H23; 20.5 µM (inactive) in the assay on RPMI-8226; 13.7 µM (inactive) in the assay on RXF 393; 29.9 µM (inactive) in the assay on SF-268; 18.9 µM (inactive) in the assay on SF-295; 28.3 µM (inactive) in the assay with SK-MEL-28. Also, the GI50 with SK-OV-3 is 27.2 µM (inactive); in the assay with SN12C it was 18.3 µM (inactive); with SR, 21.7 µM (inactive); in the assay on TK-10, 33.3 µM (inactive); in the assay with U-251 it was 16.7 µM (inactive).
For `COC1=CC(=O)c2ccc(C(C)C)cc2C1(C)C1=NC(C)(C)CO1` (centres undefined), the GI50 in the assay with HOP-62 is > 100 µM (inactive); with HOP-92, 86.7 µM (inactive); in the assay on IGROV-1 it was > 100 µM (inactive); with MOLT-4, 81.7 µM (inactive); in the assay on NCI-H23 it was > 100 µM (inactive); in the assay with RPMI-8226 it was 41.4 µM (inactive). Besides, the GI50 in the assay with RXF 393, with SF-268, in the assay on SF-295, with SK-MEL-28, in the assay on SK-OV-3 and in the assay with SN12C was > 100 µM (inactive) each time. Further, the figures for the GI50 in the assay with SR, in the assay with TK-10 and in the assay with U-251 were 86.3 µM (inactive), > 100 µM (inactive) and > 100 µM (inactive), respectively.
Regarding `N#CCC(=O)NC1C2CC3CC(C2)CC1C3` (centres undefined), the GI50 is 16.5 µM (inactive) in the assay with A498; 23.4 µM (inactive) in the assay on HOP-62; 18.3 µM (inactive) in the assay with HOP-92; 25.4 µM (inactive) with IGROV-1; 10.7 µM (inactive) in the assay with LOX IMVI; 34 µM (inactive) in the assay on MOLT-4. The GI50 was 16.6 µM (inactive) in the assay on NCI-H23; 34.6 µM (inactive) in the assay with RPMI-8226; 15.8 µM (inactive) with RXF 393; 17.7 µM (inactive) with SF-268; 16.7 µM (inactive) with SF-295; 19.1 µM (inactive) in the assay on SK-MEL-28. The GI50 with SK-OV-3 is 37.4 µM (inactive); with SN12C it was 16.1 µM (inactive); in the assay with TK-10, 19.4 µM (inactive); with U-251 it was 16.2 µM (inactive).
In the case of `O=C(CC1(O)C(=O)Nc2c(Cl)ccc(Cl)c21)c1ccc2ccccc2c1` (centres undefined), the GI50 in the assay on A498 is 16.3 µM (inactive); in the assay with HOP-62, 29 µM (inactive); in the assay on IGROV-1 it was 14.3 µM (inactive); with LOX IMVI, 11.2 µM (inactive); in the assay on MOLT-4, 10.8 µM (inactive); with NCI-H23 it was 10.4 µM (inactive). Besides, the GI50 in the assay with RPMI-8226 is 6.75 µM (inactive); in the assay on RXF 393, 11.6 µM (inactive); with SF-268 it was 14.5 µM (inactive); in the assay with SF-295, 4.92 µM (inactive); with SK-MEL-28, 14.8 µM (inactive); in the assay with SK-OV-3, 11.9 µM (inactive). In addition, the GI50 was 16.4 µM (inactive) in the assay on SN12C, 3.21 µM (inactive) in the assay on SR, 16.2 µM (inactive) in the assay with TK-10 and 4.76 µM (inactive) in the assay with U-251.
As for `CCCCCCCC(=O)NCC(O)CNC(=O)CCCCCCC`, the GI50 in the assay with A498, in the assay on HOP-62, in the assay on HOP-92, in the assay on IGROV-1, in the assay with LOX IMVI and with MOLT-4 was > 100 µM (inactive) throughout. Besides, the GI50 in the assay on NCI-H23, with RPMI-8226, in the assay with RXF 393, in the assay on SF-268, in the assay on SF-295 and in the assay on SK-OV-3 was > 100 µM (inactive) each time. The GI50 in the assay on SN12C, in the assay with SR, in the assay on TK-10 and with U-251 was > 100 µM (inactive) in each case.
In the case of `Clc1cc(Cl)cc(Nc2nc3ccccc3nc2-c2cccs2)c1`, the GI50 in the assay with HOP-62 was 40.4 µM (inactive); in the assay with HOP-92, 12.4 µM (inactive); with LOX IMVI, 94.6 µM (inactive); in the assay with MOLT-4, 47.2 µM (inactive); with NCI-H23, 28.8 µM (inactive); in the assay on RPMI-8226 it was 40 µM (inactive). The GI50 in the assay on RXF 393 was 17.1 µM (inactive); in the assay with SF-268 it was 34 µM (inactive); in the assay with SF-295 it was 22.1 µM (inactive); with SK-MEL-28, > 10 µM (inactive); in the assay on SK-OV-3 it was 31.3 µM (inactive); in the assay with SN12C, 54.3 µM (inactive). The GI50 with SR is 51.2 µM (inactive); in the assay with TK-10 it was 37.9 µM (inactive); in the assay with U-251, > 10 µM (inactive).
